# Values quoted from earlier work in US7128928B2, “Ophthalmic formulation with novel gum composition” (Pharmacia Corporation, priority 2002, dated 2006).
# System: infective gram-positive bacteria
smiles,measurement,value
CC(=O)NC[C@H]1CN(c2ccc(N3CCOCC3)c(F)c2)C(=O)O1 [linezolid],MIC90,about 4 μg/ml
